In brackets after ≈: the same amount, converted by molar mass. Where two headings read alike, the source gives them in different places. Where a SMILES comes first, the peptide text is derived from it. Bridges are numbered along the chain shown (N, C = ends). [ ]: non-standard residue; d: D form. The star is where a group is joined. ξ: configuration not given here. Hexanoyl(4ξ-Me) = CCC(C)CCC(=O)*; dOrn = NCCC[C@@H](N)C(=O)O; Orn = NCCC[C@H](N)C(=O)O
How the values were obtained:
[1] = tested on: E. coli TOP10 cells; test: Bacterial growth kinetics; assay type: cell-based, Escherichia coli; details: OD600 of cells exposed to antibiotics (Fig. 4: two times the MIC)
Experimental: A single fresh colony of E. coli TOP10 cells was inoculated into MHB (5 mL) and grown with shaking at 225 rpm overnight. The bacteria were diluted to 1 × 10^5 c.f.u. mL^−1 in fresh MHB, grown […] to early log-phase (OD600 = 0.15) and treated with the antibiotics of interest in the wells of a 96-well plate. Final antibiotic concentrations varied from one to eight times the MIC. The plate was then incubated at 30 °C overnight, with OD600 measurements taken every 30 s.

[2] = tested on: E. coli; test: Lysis assay; assay type: cell-based, Escherichia coli; details: ten times the MIC, culture OD600 = 1.0, 24 h
Experimental: An overnight culture of E. coli TOP10 cells was diluted 1:10,000 in MHB and incubated at 37 °C with agitation at 180 rpm for 2 h (early exponential). The bacteria were then challenged with brevicidine (20 μg mL^−1), laterocidine (20 μg mL^−1), or polymyxin B (10 μg mL^−1) at ten times the MIC at room temperature without shaking. An untreated sample of cells was used as a negative control. At intervals, 10 μL aliquots were removed, centrifuged at 10,000 × g for 1 min and resuspended in 1.0 mL of sterile PBS. Tenfold serially diluted suspensions were plated on MHB agar plates and incubated at 37 °C overnight. Colonies were counted and the number of c.f.u. per mL was calculated. For analysis of lysis, 300 μL of culture (OD600 = 1.0) were treated with antibiotics at ten times the MIC for 24 h. Experiments were performed in triplicate.

[3] = tested on: Human HeLa cells; details: concentrations up to 128 μg mL^−1, 48 h, 37 °C, MTT, absorbance 570 nm
Experimental: Human HeLa cells were used in the assay. Ninety μL of 1 × 10^5 mL^−1 cells were placed into the wells of 96-microwell plates. After 12 h, 10 μL of a medium containing test compounds at various concentrations were added to the cells which were then incubated at 37 °C for 48 h. Afterward, the supernatant was removed and 20 μL of MTT (3-(4,5-Dimethylthiazol-2-yl)-2,5-Diphenyltetrazolium Bromide) (2.5 mg mL^−1) in PBS were added to each well. After incubation at 37 °C for 3 h, 80 μL of dimethyl sulfoxide (DMSO) were added to each well and incubated for an additional 15 min. The absorbance was then measured at 570 nm with a Thermo Scientific Multiskan FC multiplate photometer.

[4] = tested on: E. coli ATCC 25922; test: Resistance acquisition during serial passaging; assay type: cell-based, Escherichia coli; details: subinhibitory concentrations, 30-day period, MHB, 37 °C, quadruplicate
Experimental: (§1) E. coli ATCC 25922 was inoculated into MHB overnight at 37 °C with continuous shaking. Cells were diluted 10,000 times in MHB to about 1 × 10^6 c.f.u. mL^−1. Ten µL aliquots were drawn to a 96-well plate containing 90 µL of serially diluted brevicidine, laterocidine, and ciprofloxacin, at final concentrations of 0.5×, 1×, 1.5×, 2×, and 4× MIC. […] Plates with bacteria were incubated at 37 °C without shaking. […] This process was repeated for 30 days, and the final MIC was confirmed by the same antibacterial assay as the one described above. The experiment was performed in quadruplicate, and on each day, the sample that developed the highest resistance was measured to plot the curve. For single-step resistance, E. coli ATCC 25922 cells at 10^8 c.f.u. were plated onto Mueller–Hinton agar containing 4× MIC of brevicidine.

[5] = tested on: rabbit erythrocytes; details: concentrations up to 128 μg mL^−1, 2% (v/v) rabbit erythrocytes in PBS, 1 h, 37 °C, absorbance 570 nm, vs 10% Triton X-100
Experimental: Hemolytic activity was determined with red blood cells freshly isolated from healthy rabbits. […] The cells were incubated for 1 h at 37 °C and centrifuged for 5 min at 10,000 × g. The supernatant was transferred to a 96-well plate and the absorbance was measured at a wavelength of 570 nm with a Thermo Scientific Multiskan FC multiplate photometer. The absorbance relative to the positive control, which was treated with 10% Triton X-100, was defined as the percentage of hemolysis.

[6] = tested on: E. coli ATCC 25922; details: 10^8 c.f.u. plated on Mueller–Hinton agar at four times the MIC, 48 h, 37 °C
Experimental: as §1

[7] = tested on: Colistin-resistant E. coli (E. coli ATCC 25922 carrying mcr-1); test: MIC by broth microdilution; assay type: cell-based, Escherichia coli; details: MHB, 37 °C, 24 h
Experimental: MIC was determined by broth microdilution according to CLSI guidelines. The test medium for most species was Mueller–Hinton broth (MHB). Bacteria were grown overnight to early stationary phase and adjusted in MHB to 5.0 × 10^5 c.f.u. mL^−1 in the wells of 96-well microtiter plates (Falcon® 96-Well Flat-Bottom Microplate, Tissue Culture-Treated), mixed with varying concentrations of test compounds and incubated at 37 °C for 24 h. Cell growth was evaluated by measuring the optical density at 595 nm (Thermo Scientific Multiskan FC multiplate photometer) (Waltham, MA, USA), and the MIC was defined as the lowest compound concentration at which no bacterial growth was observed. MHBs containing 10% fetal bovine serum (Gibco), 21 mM MgCl, or 1.0 mg mL^−1 LPS (lipopolysaccharides from E. coli O55:B5, Sigma-Aldrich) was used to test their inhibitory effects.

[8] = tested on: Saccharomyces cerevisiae; assay type: cell-based; details: 24 h

Structure (SMILES): CCC(C)CCC(=O)N[C@H](CC(N)=O)C(=O)N[C@H](Cc1ccc(O)cc1)C(=O)N[C@H](Cc1c[nH]c2ccccc12)C(=O)N[C@H](CCCN)C(=O)N[C@@H](CCCN)C(=O)NCC(=O)N[C@H](CCCN)C(=O)N[C@@H](Cc1c[nH]c2ccccc12)C(=O)N[C@@H]1C(=O)N[C@@H]([C@@H](C)CC)C(=O)NCC(=O)N[C@@H](CO)C(=O)O[C@@H]1C (stereo partly drawn) [Compound 1, brevicidine] ({Hexanoyl(4ξ-Me)}-[dN][dY][dW][dOrn][Orn]G[dOrn]WTIGS; ester 9-C)
- growth kinetics of E. coli cells exposed to compound [1]: grew at a reduced rate for 30 min
- lysis of E. coli cells [2]: completely lysed
- toxicity against the human cell line HeLa [3]: nor showed significant toxicity
- resistance development during serial passaging [4]: did not develop resistance
- lysis of erythrocytes (hemolysis) [5]: neither caused the lysis of erythrocytes
- single-step resistance [6]: did not develop resistance
- single-step resistance ([6]; listed as brevicidine): no resistant colonies were detected
- MIC [7]: 2 µg/mL (≈ 1.32 µM)
- MIC [8]: >64 µg/mL

From publication PMC6095874, “Discovery of cationic nonribosomal peptides as Gram-negative antibiotics through global genome mining” (Nature Communications, 2018)
